Test results: patent publication US9790235B2, “MK2 inhibitors and uses thereof” (Celgene CAR LLC, priority 2014, dated 2017)
Read-outs that look alike come from different tables or passages of the source.

Assays:
[1] = molecular target: p38α activated, mitogen-activated protein kinase-activated protein kinase 2 (MAPKAP-K2 or MK2) enzyme (Homo sapiens (Human), UniProt P49137); test: MK2 Omnia continuous-read kinase assay for compound potency; format: biochemical
From the text: Mitogen-Activated Protein Kinase-Activated Protein Kinase 2 Omnia® Assay for Compound Potency Assessment:
The protocol below describes a continuous-read kinase assay optimized to measure potency of compounds against p38α activated, mitogen-activated protein kinase-activated protein kinase 2 (MAPKAP-K2 or MK2) enzyme. Further details of this assay are described by Life Technologies, Carlsbad, Calif. on their website at the following URL: http://tools.lifetechnologies.com/content/sfs/manuals/omnia_kinase_assay_man.pdf.
[Reagent] used: • [MK-2]=0.4 nM, • [ATP]=10 μM and • [ST3-Sox]=10 μM (ATP^appKM=10 μM)
Kinase reactions were started with the addition of 45 μL of the ATP-peptide substrate S/T3-Sox mix and monitored every 71 seconds for 120 minutes at λex360/λem485 in a Synergy H4 plate reader from BioTek (Winooski, Vt.) at room temperature.
Background signals from the no enzyme control wells were subtracted from all progress curves. The initial linear portions of the net progress curves were fit according to a linear equation to yield the slope and percentage of inhibition (% inhibition) at each compound concentration. The net progress curves obtained during the first two hours of reactions were also fit according to an ascending single-exponential equation (Eq. 1) to yield kobs values at each compound concentration. Plots of % Inhibition versus inhibitor concentrations were fit according to a dose-response equation (Eq. 2) to generate IC50 and Hill slope values while plots of kobs versus inhibitor concentration were fit according to Equation 3 (Eq. 3) to generate apparent kinact/KI values using the GraphPad PRISM software (Version 6.00; GraphPad San Diego, Calif.).
[formula] where F is the fluorescence intensity from the plate reader, V0 is a constant reflecting the relationship between the instrument readout and product concentration, t is time, e is Euler's number, and kobs is the observed inactivation rate constant.
[formula] where % Inhibition is percentage of inhibition, IC50 is half maximal inhibitory concentration, [I] is the inhibitor concentration, and n is the Hill slope.

[2] = molecular target: T1, MK2 (Homo sapiens (Human), UniProt P49137); test: MK2 cellular assay, total and phospho-Hsp27 (Serine 78) by MSD ELISA (Thp1); format: cell-based
T1 sequence (P49137 whole entry): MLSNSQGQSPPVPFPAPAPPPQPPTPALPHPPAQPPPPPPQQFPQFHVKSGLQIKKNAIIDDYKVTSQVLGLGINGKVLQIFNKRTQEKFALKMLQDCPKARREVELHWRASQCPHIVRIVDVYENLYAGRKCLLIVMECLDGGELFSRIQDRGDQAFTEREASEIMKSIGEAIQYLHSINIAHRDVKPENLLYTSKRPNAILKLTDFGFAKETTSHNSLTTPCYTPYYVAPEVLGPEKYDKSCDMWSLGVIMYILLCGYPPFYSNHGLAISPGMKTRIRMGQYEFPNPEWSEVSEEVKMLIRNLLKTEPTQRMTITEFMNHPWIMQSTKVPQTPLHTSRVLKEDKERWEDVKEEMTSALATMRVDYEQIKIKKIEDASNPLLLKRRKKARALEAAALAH
Experimental: MK2 Cellular Assay—Detection of Total and Phospho-Hsp27 (Serine 78) by MSD ELISA (Thp1)
Compounds of the invention were assayed in Thp-1 human acute monocytic leukemia cells to measure inhibition of MK2 activity. Thp-1 cells were grown in culture medium containing RPMI/10% FBS (fetal bovine serum)/0.05 mM 2-mercaptoethanol. 72 hours prior to the assay, 8×10^4 cells per well were plated in a 96 well flat bottom plate along with 10 ng/mL phorbol 12-myristate 13-acetate (PMA). Cells were cultured in an incubator at 37° C. until needed for the assay. Cell plate media was replaced with culture media just prior to assay while compound dilutions were being made.
Stock solutions of test compound, 1 mM in DMSO, were prepared. 0.9 μl of test compound was added to 300 μl cell media for a starting concentration of 3000 nM. […] Cell plate media was discarded, followed by addition of 100 μl of the compound containing media. The resulting preparation was incubated at 37° C. for 1 hour.
Test compound-containing cell assay media was removed and the cells were washed once with cell assay media. Cell assay media containing 50 ng/mL LPS (lipopolysaccharide) was added to the each well and incubated for 45 minutes. Following LPS incubation, the cells were washed once with PBS (phosphate-buffered saline) and lysed with 60 μl Cell Extraction Buffer (Invitrogen #FNN0011) plus protease and phosphatase inhibitors. The plate was then stored at −80° C. until further analysis.
The MULTI-SPOT Phospho(Ser78)/Total HSP27 ELISA Assay kit was purchased from Meso Scale […] (MSD; catalog #K15128D). […] The pre-coated MSD plate was blocked with 150 μL/well of 3% BSA in MSD wash buffer. The preparation was placed on a shaker at room temperature for an hour. While the ELISA plate was blocked, the cell assay plate stored at −80° C. was placed on a shaker at 4° C. for 1 hour to thaw.
The blocked MSD plate was washed on a plate washer, tapping out the last bit of wash solution, followed by addition of 30 μl of the lysate from the cell assay plate. The preparation was covered and incubated for 1 hour at room temperature. The lysate was removed, the plate was washed 3 times on a plate washer and the last bit of wash buffer was tapped out and replaced with 25 μl/well detection antibody (anti-total HSP27 conjugated with an electrochemiluminescent compound, MSD SULFO-TAG label, supplied in kit) made in 1% BSA/MSD wash buffer. The plate was incubated for 1 hour at room temperature on a shaker, followed by 3 washes. The last bit of wash buffer was tapped out. 150 μl/well 1×MSD read buffer was added (4× read buffer supplied with kit) and the plate was analyzed on the MSD SECTOR® Imager for analysis. The SECTOR® Imager measures intensity of emitted light to provide a quantitative measure of phosphorylated HSP27 (Ser78) and total HSP27 present in the sample. The relative percent phosphoprotein in a sample is calculated by dividing the Phospho-HSP27 signal intensity over the total HSP27 signal intensity measured in each well.

[3] = molecular target: T1, MK2
Experimental: Aliquots of the resulting mixture (6 μL each) were diluted with 0.2% trifluoroacetic acid (TFA, 10 μL) prior to micro C4 ZipTipping directly onto the MALDI target using sinapinic acid as the desorption matrix (10 mg/ml in 0.1% TFA:acetonitrile 50:50, v/v). The centroid mass of the target protein in the control sample was compared with the centroid mass of the target protein incubated with compound. A shift in the centroid mass of the treated protein compared to the untreated protein was divided by the molecular weight of the compound. This number corresponds to the percentage of modified protein (a measure of the proportion of total target protein covalently bound to the test compound) after one hour incubation.
3 μL of magnetic Ni-NTA beads were added to the 6 μL aliquots of sample, washed, eluted with 0.2% trifluoroacetic acid (TFA, 2 μL), and spotted directly onto the MALDI target using sinapinic acid as the desorption matrix (10 mg/ml in 0.1% TFA:acetonitrile 50:50, v/v). The centroid mass of the target protein in the control sample was compared with the centroid mass of the target protein incubated with compound. A shift in the centroid mass of the treated protein compared to the untreated protein was divided by the molecular weight of the compound. This number corresponds to the percentage of modified protein (a measure of the proportion of total target protein covalently bound to the test compound) after one hour incubation.

[4] = [MK-2]=0.4 nM, [ATP]=10 μM, [ST3-Sox]=10 μM, read-out: MK2 IC50
[5] = Thp-1 cells, 1 hour compound, 50 ng/mL LPS 45 minutes, p-HSP27 (Ser78)/total HSP27, read-out: pHSP27 signaling EC50
[6] = percentage of modified protein after 60 minutes at room temperature, 10-fold excess of compound, MALDI (I-1 to I-50), magnetic bead MALDI (I-51 to I-129)
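Throughout, for Mass Modification: covalent binding read from centroid mass shift of compound-treated versus untreated intact MK2, shift divided by compound molecular weight, giving fraction of total protein bound.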

p38α activated, mitogen-activated protein kinase-activated protein kinase 2 (MAPKAP-K2 or MK2) enzyme, sequence (P49137 whole entry): as above

Compound	IC50 [1, 4]	EC50 [2, 5]	Mass Modification [3, 6]	IC50 ([1]; read-out: MK2 IC50)	Mass Modification [3]	IC50 [1]	EC50 [2]
C[C@@H]1CNc2c(sc3ccc4nc(Nc5cc(Cl)nc(OCCN6CCN(C)CC6)n5)ccc4c23)C(=O)N1 [I-66, (R)-3-((6-chloro-2-(2-(4-methylpiperazin-1-yl)ethoxy)pyrimidin-4-yl)amino)-10-methyl-9,10,11,12-tetrahydro-8H-[1,4]diazepino[5′,6′:4,5]thieno[3,2-f]quinolin-8-one]	< 100 nM	101 to 500 nM	F (mass modification of 31-69%)				
C[C@@H]1CNc2c(sc3ccc4nc(Oc5nc(Cl)ncc5CN5C[C@@H](C)N[C@@H](C)C5)ccc4c23)C(=O)N1 [I-115, (R)-3-((2-chloro-5-(((3R,5S)-3,5-dimethylpiperazin-1-yl)methyl)pyrimidin-4-yl)oxy)-10-methyl-9,10,11,12-tetrahydro-8H-[1,4]diazepino[5′,6′:4,5]thieno[3,2-f]quinolin-8-one]	101 to 500 nM	> 1000 nM	E (mass modification of ≧70%)				
C[C@@H]1CNc2c(sc3ccc4nc(Oc5nc(Cl)ncc5CN5CC6CC6C5)ccc4c23)C(=O)N1 (stereo partly drawn) [I-83, ((1OR)-3-((5-(3-azabicyclo[3.1.0]hexan-3-yl)methyl)-2-chloropyrimidin-4-yl)oxy)-10-methyl-9,10,11,12-tetrahydro-8H-[1,4]diazepino[5′,6′:4,5]thieno[3,2-f]quinolin-8-one]	101 to 500 nM	< 100 nM	E (mass modification of ≧70%)				
CCOC(=O)c1cnc(Cl)nc1Nc1ccc2c(ccc3sc4c(c32)NC[C@@H](C)NC4=O)n1 [I-18, (R)-ethyl 2-chloro-4-((10-methyl-8-oxo-9,10,11,12-tetrahydro-8H-[1,4]diazepino[5′,6′:4,5]thieno[3,2-f]quinolin-3-yl)amino)pyrimidine-5-carboxylate]	< 100 nM	101 to 500 nM	F (mass modification of 31-69%)				
C[C@@H]1CNc2c(sc3ccc4nc(Oc5nc(F)nc6c5COC6)ccc4c23)C(=O)N1 [I-119, (R)-3-((2-fluoro-5,7-dihydrofuro[3,4-d]pyrimidin-4-yl)oxy)-10-methyl-9,10,11,12-tetrahydro-8H-[1,4]diazepino[5′,6′:4,5]thieno[3,2-f]quinolin-8-one]	< 100 nM	< 100 nM	F (mass modification of 31-69%)				
COc1nc(Cl)nc(Oc2ccc3c(ccc4sc5c(c43)NC[C@@H](C)NC5=O)n2)n1 [I-76, (R)-3-((4-chloro-6-methoxy-1,3,5-triazin-2-yl)oxy)-10-methyl-9,10,11,12-tetrahydro-8H-[1,4]diazepino[5′,6′:4,5]thieno[3,2-f]quinolin-8-one]	< 100 nM	> 1000 nM	E (mass modification of ≧70%)				
C[C@@H]1CNc2c(sc3ccc4nc(Nc5nc(Cl)cc(OCCN6CCN(C)CC6)n5)ccc4c23)C(=O)N1 [I-61, (R)-3-((4-chloro-6-(2-(4-methylpiperazin-1-yl)ethoxy)pyrimidin-2-yl)amino)-10-methyl-9,10,11,12-tetrahydro-8H-[1,4]diazepino[5′,6′:4,5]thieno[3,2-f]quinolin-8-one]	< 100 nM	> 1000 nM	G (mass modification ≦30%)				
C[C@@H]1CNc2c(sc3ccc4nc(Oc5nc(Cl)nc6c5CS(=O)(=O)CC6)ccc4c23)C(=O)N1 [I-105, (R)-3-((2-chloro-6,6-dioxido-7,8-dihydro-5H-thiopyrano[4,3-d]pyrimidin-4-yl)oxy)-10-methyl-9,10,11,12-tetrahydro-8H-[1,4]diazepino[5′,6′:4,5]thieno[3,2-f]quinolin-8-one]	< 100 nM	101 to 500 nM	E (mass modification of ≧70%)				
C[C@@H]1CNc2c(sc3ccc4nc(Oc5cncc(Cl)n5)ccc4c23)C(=O)N1 [I-55, (R)-3-((6-chloropyrazin-2-yl)oxy)-10-methyl-9,10,11,12-tetrahydro-8H-[1,4]diazepino[5′,6′:4,5]thieno[3,2-f]quinolin-8-one]	101 to 500 nM	> 1000 nM	G (mass modification ≦30%)				
C[C@@H]1CNc2c(sc3ccc4nc(Oc5nc(Cl)nc(N6CCCC6)n5)ccc4c23)C(=O)N1 [I-62, (R)-3-((4-chloro-6-(pyrrolidin-1-yl)-1,3,5-triazin-2-yl)oxy)-10-methyl-9,10,11,12-tetrahydro-8H-[1,4]diazepino[5′,6′:4,5]thieno[3,2-f]quinolin-8-one]	< 100 nM	101 to 500 nM	E (mass modification of ≧70%)				
C[C@@H]1CNc2c(sc3ccc4nc(Oc5nc(Cl)nc6c5CN(C)CC6)ccc4c23)C(=O)N1 [I-126, (R)-3-((2-chloro-6-methyl-5,6,7,8-tetrahydropyrido[4,3-d]pyrimidin-4-yl)oxy)-10-methyl-9,10,11,12-tetrahydro-8H-[1,4]diazepino[5′,6′:4,5]thieno[3,2-f]quinolin-8-one]		< 100 nM		< 100 nM	E (key: E: mass modification of ≧70%; F: mass modification of 31-69%; G: mass modification ≦30%)		
C[C@@H]1CNc2c(sc3ccc4nc(Oc5nc(Cl)nc(N(C)C)n5)ccc4c23)C(=O)N1 [I-75, (R)-3-((4-chloro-6-(dimethylamino)-1,3,5-triazin-2-yl)oxy)-10-methyl-9,10,11,12-tetrahydro-8H-[1,4]diazepino[5′,6′:4,5]thieno[3,2-f]quinolin-8-one]	< 100 nM	< 100 nM	E (mass modification of ≧70%)				
C[C@@H]1CNc2c(sc3ccc4nc(N(CCN(C)C)c5cc(F)ncn5)ccc4c23)C(=O)N1 [I-33, (R)-3-((2-(dimethylamino)ethyl)(6-fluoropyrimidin-4-yl)amino)-10-methyl-9,10,11,12-tetrahydro-8H-[1,4]diazepino[5′,6′:4,5]thieno[3,2-f]quinolin-8-one]			F (mass modification of 31-69%)			501 to 999 nM	> 1000 nM
C[C@@H]1CNc2c(sc3ccc4nc(Oc5nc(Cl)ncc5COCCC#N)ccc4c23)C(=O)N1 [I-111, (R)-3-((2-chloro-4-((10-methyl-8-oxo-9,10,11,12-tetrahydro-8H-[1,4]diazepino[5′,6′:4,5]thieno[3,2-f]quinolin-3-yl)oxy)pyrimidin-5-yl)methoxy)propanenitrile]	< 100 nM	101 to 500 nM	E (mass modification of ≧70%)				
